According to paper PMC10636063, “Progesterone activation of β1-containing BK channels involves two binding sites” (Nature Communications, 2023):
“And” between values parts separate entries of the source, which are not always exact repeats. Equal values may be shown once.

Key:
β1Y42V = target: T1, β1Y42V (Rattus norvegicus, UniProt P97678, Y42V); assay: Thermal unfolding (MST) of β1Y42V; format: binding
T1 construct: FLAG (DYKDDDDK); made in house; host or cells: CHO cells, transient transfection, anti-flag immunoprecipitation
Excerpt: (§1) BK channel-forming slo1 cDNA (cbv1 isoform; AY330293) was cloned from rat cerebral artery SM cells, and inserted into pcDNA3.1 vector as described. BK β1 cDNA (KCNMB1 product; NP_011452; FJ154955) were isolated from rat cerebral artery SM cells and cloned as described. β4 cDNA (KCNMB4; NP_055320; AY028605) were generously provided by Dr. Ligia Toro. CHO cells were transiently transfected with cbv1 ± β1-, or β4-carrying pcDNA3.1 using X-tremeGENE HP (Sigma-Aldrich). Mutations to β1/4 cDNAs were conducted by Genscript, with sequences being confirmed to be >99% identical to KCNMB1 product; NP_011452 or β4 KCNMB4; NP_055320; respectively. β1/4 and mutant constructs were flag-tagged (DYKDDDDK-tag) by Genscript services for subsequent immunoprecipitation and use in microscale thermophoresis studies.
Wt β1, wt β4 and mutant constructs were purified by immunoprecipitation using Dynabeads Protein G Kit (10007D by Invitrogen) and following the manufacturer’s instructions. […] The unfolding profile of a protein is a plot of its fluorescence signal against temperature. […] During the heating process, fluorescence is recorded at 330 and 350 nm. The resulting fluorescence ratio change is then analyzed for onset and inflection points. The temperature of onset and inflection is determined using built-in analysis function in Nanotemper PR.therm-control software. […]

[1] = target: T2, slo1 (cbv1 isoform)+β1 BK channels (Rattus norvegicus, UniProt P97678); assay: Channel activity (NPo) in POPE/POPS planar lipid bilayers, cbv1+β1; format: biochemical; conditions: for normalized NPo, time course Fig 2E: 10uM PROG; for action on channel activity (NPo): 10 μM, cis chamber, vs DMSO
T2 construct: made in house; host or cells: CHO cells, transient transfection; sucrose-gradient membrane preparation
Excerpt: as §1
Proteins for electrophysiological recordings in artificial lipid bilayers remained untagged. Cells were transiently transfected as described above, pelleted and re-suspended on ice in 10 ml of buffer solution of the following composition (mM): 30 KCl, 2 MgCl2, 10 HEPES, 5 EGTA; pH 7.2. A membrane preparation was obtained using a sucrose gradient as described. Aliquots were stored at −80 °C. BK channel-mediated ionic current was recorded in planar lipid bilayers consisting of a POPE:POPS 3:1 (w/w) mixture. Lipid mixtures were dried under N2 and re-suspended in 25 mg/ml of n-decane BK currents following incorporation into horizontal bilayers at 300/30 mM cis/trans gradient as detailed elsewhere. Ion currents were obtained during a 10-min gap-free recording at 0 mV in the presence of 0.01, 10 μM PROG, 10 μM PROG-oxime, or vehicle control (dimethyl sulfoxide; DMSO). Currents were obtained in gap-free mode using a Warner BC-525D amplifier, low pass-filtered at 1 kHz and sampled at 5 kHz with Digidata 1550B/pCLAMP 11 (Molecular Devices). For comparison with previous data from us[16],[17],[45]–[47], studies were conducted at 20–22 °C. […]
Patch-clamp and bilayer data were analyzed using Clampfit 10.7 software (Molecular Devices). NPo was used as an index of channel steady-state activity where N = number of channels in the patch (defined as a maximal number of opening levels at Po≤1) and Po=single channel open probability. Drug-induced NPo changes were determined by comparing baseline NPo (i.e., NPo with the patch/cell perfused with bath solution) to the NPo from the same patch/cell exposed to the agent under study (DMSO/PROG/oxime) dissolved in bath solution. NPo and mean open time values were automatically calculated using Clampfit 10.7, the latter using a 50% threshold detection event.

T2 sequence (P97678 whole entry, canonical isoform): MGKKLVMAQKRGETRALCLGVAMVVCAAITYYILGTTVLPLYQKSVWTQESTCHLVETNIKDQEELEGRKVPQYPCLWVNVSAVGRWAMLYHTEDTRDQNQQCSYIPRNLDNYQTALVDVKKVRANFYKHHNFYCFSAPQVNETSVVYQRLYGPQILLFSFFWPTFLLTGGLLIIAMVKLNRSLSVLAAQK
T2 sequence (Q62976 1-1148 isoform Q62976-2 partner): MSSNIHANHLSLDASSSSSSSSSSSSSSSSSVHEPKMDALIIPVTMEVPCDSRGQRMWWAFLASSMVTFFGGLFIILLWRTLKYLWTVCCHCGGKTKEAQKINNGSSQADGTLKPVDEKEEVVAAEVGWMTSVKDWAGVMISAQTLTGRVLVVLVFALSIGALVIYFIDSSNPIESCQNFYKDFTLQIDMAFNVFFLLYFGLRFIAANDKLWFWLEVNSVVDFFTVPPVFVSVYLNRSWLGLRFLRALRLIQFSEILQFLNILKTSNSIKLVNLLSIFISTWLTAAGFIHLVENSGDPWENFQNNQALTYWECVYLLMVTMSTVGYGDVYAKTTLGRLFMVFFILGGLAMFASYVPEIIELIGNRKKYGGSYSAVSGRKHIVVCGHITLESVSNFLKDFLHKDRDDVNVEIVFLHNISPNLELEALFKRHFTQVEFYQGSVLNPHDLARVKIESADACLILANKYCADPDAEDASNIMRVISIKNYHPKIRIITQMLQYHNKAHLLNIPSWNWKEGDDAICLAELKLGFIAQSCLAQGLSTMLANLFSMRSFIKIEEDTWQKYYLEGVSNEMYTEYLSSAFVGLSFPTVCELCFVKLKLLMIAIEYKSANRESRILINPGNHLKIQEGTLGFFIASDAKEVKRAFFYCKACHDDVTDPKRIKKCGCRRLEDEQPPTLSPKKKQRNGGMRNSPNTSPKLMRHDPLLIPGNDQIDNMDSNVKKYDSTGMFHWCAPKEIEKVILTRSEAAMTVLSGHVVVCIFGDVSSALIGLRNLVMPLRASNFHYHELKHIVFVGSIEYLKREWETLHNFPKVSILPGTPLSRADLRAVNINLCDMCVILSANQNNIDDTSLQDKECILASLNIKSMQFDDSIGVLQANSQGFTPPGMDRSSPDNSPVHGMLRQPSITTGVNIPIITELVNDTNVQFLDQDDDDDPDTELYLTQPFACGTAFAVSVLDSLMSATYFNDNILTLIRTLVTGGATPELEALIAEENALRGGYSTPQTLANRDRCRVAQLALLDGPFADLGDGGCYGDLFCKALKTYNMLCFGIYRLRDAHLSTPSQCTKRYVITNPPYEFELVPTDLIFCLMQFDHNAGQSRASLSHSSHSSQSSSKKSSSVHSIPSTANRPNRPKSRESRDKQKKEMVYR
T1 sequence (P97678 whole entry Y42V): as the sequence (P97678 whole entry, canonical isoform) above, with Y42V counted along it

## CC(=O)[C@H]1CC[C@H]2[C@@H]3CCC4=CC(=O)CC[C@]4(C)[C@H]3CC[C@]12C [PROG, Progesterone]
β1Y42V
  binding: still bind PROG
[1]; 0 mV, 30 μM free Ca2+
  ECmax (EC100) of channel activation: 10 µM
  concentrations at which the channel is activated: greater than 0.1 μM
[1]; 0.01 µM PROG, min 2, single records
  NPo/NPobasal: 1.005 and 1.018 and 0.9275 and 1.019
[1]; 0.01 µM PROG, min 3, single records
  NPo/NPobasal: 1.029 and 1.009 and 1.058 and 0.9199
[1]; 0.01 µM PROG, min 4, single records
  NPo/NPobasal: 1.061 and 1.114 and 0.9928 and 1.089
[1]; 0.01 µM PROG, single records (Fig 1F)
  NPo/NPobasal of the maximal channel activity: 1.155 and 1 and 1.022 and 0.9918
[1]; 0.1 µM PROG, min 2, single records
  NPo/NPobasal: 0.9159 and 1.034 and 0.6663 and 1.012
[1]; 0.1 µM PROG, min 3, single records
  NPo/NPobasal: 0.7024 and 1.035 and 0.937 and 1.005
[1]; 0.1 µM PROG, min 4, single records
  NPo/NPobasal: 0.9376 and 1.037 and 1.102 and 0.9472
[1]; 0.1 µM PROG, min 5, single records
  NPo/NPobasal: 0.831 and 1.031 and 0.9946
[1]; 0.1 µM PROG, min 6, single records
  NPo/NPobasal: 0.9108 and 1.004
[1]; 0.1 µM PROG, min 7, single records
  NPo/NPobasal: 0.902 and 1.062
[1]; 0.1 µM PROG, min 8, single records
  NPo/NPobasal: 0.9384 and 1.053
[1]; 0.1 µM PROG, min 9, single records
  NPo/NPobasal: 0.9735 and 1.083
[1]; 0.1 µM PROG, min 10, single records
  NPo/NPobasal: 1.131 and 1.104
[1]; 1 µM PROG, min 2, single records
  NPo/NPobasal: 1.067 and 1.036 and 1.018 and 0.9862
[1]; 1 µM PROG, min 3, single records
  NPo/NPobasal: 1.103 and 0.992 and 0.9993 and 1.0069
[1]; 1 µM PROG, min 4, single records
  NPo/NPobasal: 0.9802 and 1.24 and 0.9671 and 1.426
[1]; 1 µM PROG, min 5, single records
  NPo/NPobasal: 1.982 and 1.288 and 1.134 and 1.31
[1]; 1 µM PROG, min 6, single records
  NPo/NPobasal: 1.589 and 1.543 and 1.405 and 1.4
[1]; 1 µM PROG, min 7, single records
  NPo/NPobasal: 1.339 and 1.38
[1]; 1 µM PROG, min 8, single records
  NPo/NPobasal: 1.498 and 1.434
[1]; 1 µM PROG, min 9, single records
  NPo/NPobasal: 1.121 and 1.382
[1]; 1 µM PROG, min 10, single records
  NPo/NPobasal: 1.43 and 1.377
[1]; 3 µM PROG, min 3, single records
  NPo/NPobasal: 1.768 and 1.125 and 1.174
[1]; 3 µM PROG, min 4, single records
  NPo/NPobasal: 2.026 and 1.046 and 1.706
[1]; 3 µM PROG, min 9, single records
  NPo/NPobasal: 2.184 and 1.286
[1]; 3 µM PROG, min 10, single records
  NPo/NPobasal: 2.295 and 1.4507
[1]; cbv1+beta1, time 1 min (normalisation reference), columns = single bilayers
  normalized NPo, time course Fig 2E: 1
[1]; cbv1+beta1, time 2 min
  normalized NPo, time course Fig 2E: 1.077 and 1.05 and 1.119 and 1.043 and 0.7556 and 0.908 and 1.053
[1]; cbv1+beta1, time 6 min
  normalized NPo, time course Fig 2E: 1.387 and 1.439 and 2.22 and 2.096 and 2.632 and 2.4507 and 1.714
[1]; cbv1+beta1, time 7 min
  normalized NPo, time course Fig 2E: 1.767 and 1.768 and 2.22 and 2.153 and 1.686 and 2.452 and 1.347
[1]; cbv1+beta1, time 9 min
  normalized NPo, time course Fig 2E: 1.702 and 2.262 and 1.688 and 2.653 and 1.535 and 1.822
[1]; cbv1+beta1, time 10 min
  normalized NPo, time course Fig 2E: 1.856 and 2.788 and 1.831 and 1.767 and 1.527
[1]
  action on channel activity (NPo): readily and robustly activated
[1]; 100 µM PROG, min 2, single records
  NPo/NPobasal: 0.9793 and 1.054 and 0.898
[1]; 100 µM PROG, min 3, single records
  NPo/NPobasal: 1.51 and 1.02 and 1.024
[1]; 100 µM PROG, min 4, single records
  NPo/NPobasal: 1.597 and 1.676 and 0.9571
[1]; 100 µM PROG, min 5, single records
  NPo/NPobasal: 1.91 and 2.009 and 1.692
[1]; 100 µM PROG, min 6, single records
  NPo/NPobasal: 2.017 and 2.015 and 2.955
[1]; 100 µM PROG, min 7, single records
  NPo/NPobasal: 1.186 and 2.342 and 2.352
[1]; 100 µM PROG, min 8, single records
  NPo/NPobasal: 1.501 and 2.445 and 2.086
[1]; 100 µM PROG, min 9, single records
  NPo/NPobasal: 1.524 and 2.434
[1]; 100 µM PROG, min 10, single records
  NPo/NPobasal: 1.446 and 2.664

## CC(=O)C1CCC2C3CCC4=CC(=NOCC(=O)O)CCC4(C)C3CCC12C (centres unmarked) [PROG-oxime, progesterone 3-(O-carboxymethyl)oxime]
[1]; 10 μM PROG-oxime, min 8, single records
  NPo/NPobasal: 1.05 and 1.498 and 1.058 and 0.7956 and 1.316
[1]; 10 μM PROG-oxime, min 9, single records
  NPo/NPobasal: 1.025 and 1.49 and 0.9987 and 0.8873 and 1.604
[1]; 10 μM PROG-oxime, min 10, single records
  NPo/NPobasal: 1.45 and 1.329 and 1.113 and 0.8109 and 1.283
[1]; 10 μM PROG-oxime, single records (Fig 3E)
  maximal changes in channel activity (NPo/NPobasal): 1.0077 and 0.9962 and 1.086 and 1.4825 and 1.776 and 1.183
[1]
  action on channel activity (NPo): did not differ from that evoked by vehicle control
